Experimental data from patent publication EP3275863A1, “COMPOUNDS FOR TREATING CONGENITAL DISORDERS OF GLYCOSYLATION” (Universidad Autónoma de Madrid, priority 2016, dated 2018).

Target: T1, WT-PMM2 (Homo sapiens, UniProt O15305)
T1 construct: His6 (N); made in house; host or cells: E. coli BL21 Star DE3
T1 sequence (O15305 1-246): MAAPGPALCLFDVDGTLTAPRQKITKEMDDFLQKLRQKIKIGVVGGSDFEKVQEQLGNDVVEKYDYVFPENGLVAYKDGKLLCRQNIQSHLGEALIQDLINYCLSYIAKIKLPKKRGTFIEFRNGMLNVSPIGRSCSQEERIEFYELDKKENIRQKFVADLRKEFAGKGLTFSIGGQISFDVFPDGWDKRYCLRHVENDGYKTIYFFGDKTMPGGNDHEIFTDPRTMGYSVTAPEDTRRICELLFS
Assay: High-throughput differential scanning fluorimetry (DSF) screening, thermal denaturation
Assay type: binding
Settings: 0.08 mg/mL of compound, 4% DMSO, vs DMSO control; read-out: protein Tm is increased (ΔTm)
Method: 10,000 molecular compounds from the MyriaScreen (Sigma-Aldrich) diversity collection were screened by determining the stabilization induced by the binding of different ligands (potential pharmacological chaperones) to the purified recombinant protein. The identification of ligands that stabilize WT-PMM2 thermally, was done by monitoring the thermal denaturation. The screening was performed by monitoring a shift in the fluorescence intensity at 610 nm using the LightCycler A480 (Roche).
PMM2 proteins were expressed in E.coli (BL21 Star™DE3 One Shot® Invitrogen). […]
Protein purification was performed using the ÄKTA Prime System (GE Healthcare, Little Chalfont, UK) at 4°C. […] The pure protein concentration was estimated by measuring the absorbance at 280 nm in a Nanodrop spectrophotometer (Thermo Scientific, Waltham, MA, USA) using the theoretical molar extinction coefficient estimated from the amino acid composition of HisPMM2 (23755 M^-1 cm^-1).
10,000 compounds of molecular weight ranging from 220 to 547 Da from the MyriaScreen diversity collection, dissolved in DMSO (Sigma Aldrich, St. Louis, MO, USA) to a final concentration of 2 mg/mL, were screened by DSF for identification of ligands that stabilize WT-PMM2 thermally. […] The experimental unfolding curves were then smoothed, normalized, and analyzed using in-house software. […]

Molecule `O=C(Nc1cccc(Cl)c1)N(c1ccccn1)c1ccccn1` [Compound A, 3-(3-Chloro-phenyl)-1,1-di-pyridin-2-yl-urea] has a ΔTm at 80 µg/mL of 1.1 °C.
